From paper PMC11246513, “Exploring bat-inspired cyclic tryptophan diketopiperazines as ABCB1 Inhibitors” (Communications Chemistry, 2024) come the findings set out here.

Data set [1] deals with T1, ABCB1 (Homo sapiens, UniProt P08183). The data set is described as follows: rhodamine […] efflux inhibition, flow cytometry, HEK293T ABCB1 cells. The class given is cell-based. The arrangement: human ABCB1 (ABCB1-TEV-His-FLAG) stably expressed in HEK293T. For orientation: A flow cytometer gives signals particle by particle.
The target in data set [2] is T2, bat ABCB1 (Pteropus alecto, UniProt L5JS44).
T2 construct: gene PAL_GLEAN10013639; endogenous ABCB1 in PaKiT03 cells
The data set can be described thus: rhodamine […] efflux inhibition, flow cytometry, PaKiT03 cells with ABCB1 KO control. Type of data set: cell-based.

Data set [3] concerns the target T1, ABCB1. The class given is biochemical. The arrangement: human ABCB1-FLAG, purified and reconstituted into egg lecithin liposome.
Data set [4] deals with T2, bat ABCB1. The data set is described as follows: rhodamine […] efflux inhibition, flow cytometry, PaKiT03 cells. The class given is cell-based.

T1 sequence (P08183 whole entry): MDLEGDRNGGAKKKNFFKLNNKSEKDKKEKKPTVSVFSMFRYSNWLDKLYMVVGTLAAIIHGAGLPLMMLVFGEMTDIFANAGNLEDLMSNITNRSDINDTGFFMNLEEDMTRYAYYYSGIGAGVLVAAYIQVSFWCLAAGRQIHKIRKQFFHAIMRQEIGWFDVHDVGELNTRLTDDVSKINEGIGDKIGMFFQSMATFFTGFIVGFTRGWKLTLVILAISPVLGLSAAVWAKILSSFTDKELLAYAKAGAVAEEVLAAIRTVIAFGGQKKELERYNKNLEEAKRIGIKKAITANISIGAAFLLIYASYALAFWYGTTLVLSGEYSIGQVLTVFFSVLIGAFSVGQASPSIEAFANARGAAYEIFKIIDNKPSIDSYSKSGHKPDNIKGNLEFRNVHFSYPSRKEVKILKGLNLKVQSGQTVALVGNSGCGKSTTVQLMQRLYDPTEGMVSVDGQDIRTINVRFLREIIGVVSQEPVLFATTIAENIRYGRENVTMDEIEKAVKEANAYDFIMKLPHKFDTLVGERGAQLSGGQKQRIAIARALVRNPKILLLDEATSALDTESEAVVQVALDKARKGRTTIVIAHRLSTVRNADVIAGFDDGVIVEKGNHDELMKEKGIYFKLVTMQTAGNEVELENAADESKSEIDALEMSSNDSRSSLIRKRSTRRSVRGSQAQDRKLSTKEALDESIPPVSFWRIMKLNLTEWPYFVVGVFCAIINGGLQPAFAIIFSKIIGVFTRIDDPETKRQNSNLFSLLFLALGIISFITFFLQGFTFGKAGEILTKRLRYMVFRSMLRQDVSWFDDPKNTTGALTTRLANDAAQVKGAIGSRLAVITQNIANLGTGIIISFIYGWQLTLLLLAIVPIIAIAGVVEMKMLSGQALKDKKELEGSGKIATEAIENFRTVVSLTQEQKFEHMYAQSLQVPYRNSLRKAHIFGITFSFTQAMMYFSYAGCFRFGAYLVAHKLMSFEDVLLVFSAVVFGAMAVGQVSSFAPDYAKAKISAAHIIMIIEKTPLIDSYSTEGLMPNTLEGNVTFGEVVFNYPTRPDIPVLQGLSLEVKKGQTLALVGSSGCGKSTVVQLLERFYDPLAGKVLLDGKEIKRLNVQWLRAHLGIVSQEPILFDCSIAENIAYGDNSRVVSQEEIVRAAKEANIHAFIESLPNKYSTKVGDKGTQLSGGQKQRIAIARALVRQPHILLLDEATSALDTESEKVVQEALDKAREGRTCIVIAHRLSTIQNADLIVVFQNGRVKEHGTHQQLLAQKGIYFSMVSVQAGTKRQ
T2 sequence (L5JS44 1-1308): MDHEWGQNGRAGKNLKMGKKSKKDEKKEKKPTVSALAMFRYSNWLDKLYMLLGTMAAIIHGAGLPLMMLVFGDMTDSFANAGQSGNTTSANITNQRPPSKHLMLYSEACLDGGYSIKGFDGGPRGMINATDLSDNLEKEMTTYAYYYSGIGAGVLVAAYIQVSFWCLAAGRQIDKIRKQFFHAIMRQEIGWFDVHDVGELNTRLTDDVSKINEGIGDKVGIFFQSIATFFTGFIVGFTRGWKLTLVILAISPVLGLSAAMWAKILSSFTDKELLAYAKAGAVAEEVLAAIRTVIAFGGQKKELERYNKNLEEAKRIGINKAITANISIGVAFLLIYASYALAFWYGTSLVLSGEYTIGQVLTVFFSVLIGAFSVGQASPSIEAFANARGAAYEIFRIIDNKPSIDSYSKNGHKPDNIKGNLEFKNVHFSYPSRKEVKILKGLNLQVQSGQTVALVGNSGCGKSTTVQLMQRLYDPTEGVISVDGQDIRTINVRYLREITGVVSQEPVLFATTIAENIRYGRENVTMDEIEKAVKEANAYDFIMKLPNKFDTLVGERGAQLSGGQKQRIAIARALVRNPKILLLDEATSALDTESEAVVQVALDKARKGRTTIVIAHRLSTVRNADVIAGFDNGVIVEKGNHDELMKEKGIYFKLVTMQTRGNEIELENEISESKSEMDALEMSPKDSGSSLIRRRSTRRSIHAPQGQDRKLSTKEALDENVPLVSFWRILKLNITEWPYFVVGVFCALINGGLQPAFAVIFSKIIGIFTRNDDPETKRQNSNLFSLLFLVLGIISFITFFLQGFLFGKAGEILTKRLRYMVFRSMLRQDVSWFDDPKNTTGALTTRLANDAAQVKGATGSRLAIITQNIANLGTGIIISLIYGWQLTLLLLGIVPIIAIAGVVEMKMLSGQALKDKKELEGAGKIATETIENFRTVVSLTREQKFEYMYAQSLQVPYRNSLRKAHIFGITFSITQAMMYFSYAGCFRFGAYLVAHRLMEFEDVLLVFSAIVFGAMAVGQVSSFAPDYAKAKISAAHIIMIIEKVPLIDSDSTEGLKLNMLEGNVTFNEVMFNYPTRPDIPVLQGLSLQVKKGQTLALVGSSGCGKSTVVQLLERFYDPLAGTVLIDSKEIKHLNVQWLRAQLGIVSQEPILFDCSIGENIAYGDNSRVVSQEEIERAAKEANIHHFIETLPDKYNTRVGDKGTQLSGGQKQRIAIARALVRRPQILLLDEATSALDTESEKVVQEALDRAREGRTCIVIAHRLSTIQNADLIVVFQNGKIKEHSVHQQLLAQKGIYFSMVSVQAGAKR

As usually defined, the IC50 is the concentration that inhibits the measured activity by half. A low value points to higher potency. On to `O=C1N[C@@H](Cc2c[nH]c3ccccc23)C(=O)N2[C@H]1C[C@@]1(Cc3ccccc3)c3ccccc3N(Cc3ccccc3)[C@@H]21` [C3N-Dbn-Trp2], for which the values for the IC50 on ABCB1 [1] and against bat ABCB1 [2] were 5900 nM and 900 nM, respectively.
Turning to `Cn1cc(C[C@@H]2NC(=O)[C@H](Cc3cn(C)c4ccccc34)NC2=O)c2ccccc21` [Cyclo-(L-1-methyl-Trp-L-1-methyl-Trp)], on ABCB1 [3], the “ATPase stimulation of purified reconstituted ABCB1 (ADP by HPLC); supported by d” value was “Cyclo-(L-1-methyl-Trp-L-1-methyl-Trp) consumed larger amounts of ATP than Cyclo-(L-Trp-L-Trp) in the in vitro ATPase assay”.
Turning to `O=C1N[C@@H](Cc2c[nH]c3ccccc23)C(=O)N[C@H]1Cc1c[nH]c2ccccc12` [Cyclo-(L-Trp-L-Trp)], on ABCB1 [3], the “ATPase stimulation of purified reconstituted ABCB1 (ADP by HPLC); supported by d” value is ~ 2 mM.
`COc1cc2c(cc1OC)CN(CCc1ccc(NC(=O)c3cc(OC)c(OC)cc3NC(=O)c3cnc4ccccc4c3)cc1)CC2` [tariquidar]: the concentration for half-maximal inhibition (IC50) on ABCB1 [1] stood at 16 nM; against bat ABCB1 [4], 2 nM.
